Laboratory results as given in publication PMC10488055, “Investigation of Potential cGMP-Specific PDE V and Aminopeptidase N Inhibitors of Allium ampeloprasum L. and Its Bioactive Components: Kinetic and Molecular Docking Studies” (International Journal of Molecular Sciences, 2023).
Read-outs that look alike come from different tables or passages of the source.

Columns and labels:
[1] = molecular target: T1, aminopeptidase N (APN) (Homo sapiens, UniProt P15144); assay: Aminopeptidase N (APN) enzyme activity assay with L-p-NA substrate; type: biochemical
T1 construct: purchased Sigma-Aldrich
Method: Figure 2 Effects of AAE and AAE-derived compounds on APN activity. […] The reaction was started by adding 20 μL enzyme solution (1 mU) and incubated for 60 min at 37 °C. The absorbance of samples were measured at 405 nm to determine the formation of p-nitroaniline. Each value is the mean ± SD of triplicate measurements. * p < 0.05 and ** p < 0.01, compared to each control group (Con). Con, control group treated enzyme only.
The activity of APN was determined according to Melzig et al.. Briefly, the enzyme substrate L-p-NA (2 mM) was dissolved in 50 mM N-(2-hydroxyethyl)piperazine-N’-2ethansulfonic acid (HEPES) buffer (pH 7.4) containing 154 mM NaCl. […] The reaction was started by adding 20 μL enzyme solution (approximately 1 mU in HEPES-buffer) and incubated for 60 min at 37 °C. The samples were measured spectrophotometrically at 405 nm to determine the formation of p-nitroanilmne. APN inhibitory activity (%) = ([Absorbance control without sample − Absorbance control with sample]/Absorbance control without sample) × 100

[2] = molecular target: T2, APN (Homo sapiens, UniProt P15144); set-up: method as in doi:10.1101/2021.02.26.433103; conditions: interacts with ALA474, ASP473, and SER476; cited from earlier work
T2 construct: purchased Sigma-Aldrich

[3] = molecular target: T2, APN; assay: Kinetic assay (Lineweaver–Burk) on APN; type: biochemical; conditions: for Ki: APN
Method: (§1) Lineweaver–Burk plots were employed to analyze the inhibition of the target enzyme. These plots were represented as 1/velocity (1/V) versus 1/substrate concentration (1/(S)) in the presence or absence of each sample (non-treated (black circle), 10 μg or 1 mM (blue circle), 20 μg or 2 mM (green circle), 50 μg or 5 mM (orange circle), and 100 μg or 10 mM (purple circle)) as an inhibitor against APN.
(§2) These reactions were conducted in a total volume of 80 μL. by a previously described method. The Michaelis–Menten constant (Km) and maximal velocity (Vmax) were calculated using the x and y intercepts, respectively. […] Additionally, the Kik and Kiv inhibition constants were calculated using previously described methods.

[4] = molecular target: PDE5 (Homo sapiens, UniProt O76074); assay: Kinetic assay (Lineweaver–Burk) on PDE5; type: biochemical; set-up: Vmax / Kcat: unit of the concentration uncertain;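 as to Kcat: pure compound doses in mM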
Method: as §1, with “(1/[S])” for “(1/(S))”, “(orange” for “(blue”, “(silver” for “(green”, “(yellow” for “(orange”, “(blue” for “(purple”, “PDE5.” for “APN.”
as §2

[5] = APN treated with compound 10 mM
[6] = PDE5 treated with compound 1 (unit uncertain)
[7] = PDE5 treated with compound 2 (unit uncertain)
[8] = PDE5 treated with compound 5 (unit uncertain)
[9] = PDE5 treated with compound 10 (unit uncertain)

T1 sequence (P15144 whole entry, species assumed): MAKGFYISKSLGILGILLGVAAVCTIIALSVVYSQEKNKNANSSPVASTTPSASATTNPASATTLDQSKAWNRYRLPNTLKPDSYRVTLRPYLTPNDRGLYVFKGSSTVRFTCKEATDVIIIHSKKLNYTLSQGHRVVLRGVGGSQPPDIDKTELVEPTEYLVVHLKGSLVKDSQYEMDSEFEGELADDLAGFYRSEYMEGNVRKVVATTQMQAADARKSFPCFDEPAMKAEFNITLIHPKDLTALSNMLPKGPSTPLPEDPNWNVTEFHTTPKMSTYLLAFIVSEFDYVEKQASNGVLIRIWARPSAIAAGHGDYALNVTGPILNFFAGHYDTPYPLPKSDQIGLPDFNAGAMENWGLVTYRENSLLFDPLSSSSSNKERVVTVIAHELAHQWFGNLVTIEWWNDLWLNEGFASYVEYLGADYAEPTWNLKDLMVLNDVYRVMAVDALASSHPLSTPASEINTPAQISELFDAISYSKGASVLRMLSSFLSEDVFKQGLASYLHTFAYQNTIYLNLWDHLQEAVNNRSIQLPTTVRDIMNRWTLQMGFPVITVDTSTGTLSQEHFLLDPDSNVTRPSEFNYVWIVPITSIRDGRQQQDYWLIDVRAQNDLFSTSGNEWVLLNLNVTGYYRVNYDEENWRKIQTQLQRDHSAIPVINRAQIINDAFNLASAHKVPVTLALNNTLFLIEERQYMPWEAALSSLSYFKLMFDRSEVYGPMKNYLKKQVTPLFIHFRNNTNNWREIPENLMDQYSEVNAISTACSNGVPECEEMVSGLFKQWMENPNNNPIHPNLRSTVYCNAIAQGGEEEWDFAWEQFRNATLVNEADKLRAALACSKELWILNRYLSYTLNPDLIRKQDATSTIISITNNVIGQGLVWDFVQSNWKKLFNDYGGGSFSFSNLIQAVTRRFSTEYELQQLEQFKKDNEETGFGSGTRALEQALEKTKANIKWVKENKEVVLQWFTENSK
T2 sequence (P15144 whole entry, species assumed): as above

O=c1c(O)c(-c2ccc(O)c(O)c2)oc2cc(O)cc(O)c12 [QUE, quercetin]
IC50 [1]: > 10 mM
inhibition of APN in in vitro enzyme assay ([1]; at the highest concentration): 33%
enzymatic activity of APN ([1]; treatment with 10 mM, without sample 0.38 U): 0.25 ± 0.01 U
interaction energy with APN (docking) [2]: -6.9 kcal/mol
Kcat ([3]; APN treated with compound 1 mM): 368.1 ± 6.2 s⁻¹
Vmax ([3]; APN treated with compound 1 mM): 0.297 ± 0.005 mU/min
Kcat ([3]; APN treated with compound 2 mM): 316.6 ± 7.4 s⁻¹
Vmax ([3]; APN treated with compound 2 mM): 0.255 ± 0.006 mU/min
Kcat ([3]; APN treated with compound 5 mM): 244.1 ± 3.7 s⁻¹
Vmax ([3]; APN treated with compound 5 mM): 0.197 ± 0.003 mU/min
Kcat [3, 5]: 212.3 ± 2.5 s⁻¹
Vmax [3, 5]: 0.171 ± 0.002 mU/min
Ki ([3]; calculated by method of ref 27, read-out: Kiv): 11.8 mM
Ki ([3]; read-out: Ki): 13.2 mM
inhibition type against APN ([3]; from Kik/Kiv ratio, new decision system [27]): noncompetitive-type
Vmax value of APN, fold of non-treated group ([3]; highest concentration, non-treated 0.316 mU/min = 1.0-fold): 0.54 fold
Kik/Kiv ([4]; PDE5, ratio according to Yang et al. [27]): 9.4
Kcat [4, 6]: 5473 ± 234 k s^−1
Vmax [4, 6]: 0.724 ± 0.031 mU/min
Kcat [4, 7]: 5187 ± 166 k s^−1
Vmax [4, 7]: 0.686 ± 0.022 mU/min
Kcat [4, 8]: 2893 ± 60 k s^−1
Vmax [4, 8]: 0.383 ± 0.008 mU/min
Kcat [4, 9]: 1478 ± 38 k s^−1
Vmax [4, 9]: 0.195 ± 0.005 mU/min
inhibition type against PDE5 ([4]; from changes of Km and 1/Vmax (Lineweaver–Burk), putative decision system [27]): uncompetitive-type
Km value of PDE5, fold of non-treated ([4]; highest concentration): 0.69 fold
Vmax value of PDE5, fold of non-treated group ([4]; highest concentration, non-treated 1.039 mU/min = 1.0-fold): 0.19 fold
